According to PMC9269301, “Phytochemical Analysis, Antioxidant, Antimicrobial, and Cytotoxic Activity of Different Extracts of Xanthoparmelia stenophylla Lichen from Stara Planina, Serbia” (Plants, 2022):
Values after ≈ are worked out from the molar mass of the structure shown. Marks after values point to notes of the source that are not given here.

Legend:
[1] = test system: B. cereus (isolate); test: Microdilution with resazurin, antibacterial; type: cell-based, Bacillus cereus; conditions: Bacillus cereus, antibiotics
Description: (§1) The tested methanol, acetone, and n-hexane extracts, as well as the component (usnic acid) of X. stenophylla, were dissolved in 10% dimethyl sulfoxide (DMSO) and then diluted into the nutrient liquid medium. DMSO was obtained from Acros Organics (Fair Lawn, NJ, USA). Resazurin was obtained from Alfa Aesar GmbH & Co. (KG, Karlsruhe, Germany).
(§2) The antimicrobial activity of the extracts and components was tested against 19 microorganisms. The experiment involved 15 strains of bacteria (i.e., 6 standard strains: Staphylococcus aureus ATCC 6538, Bacillus subtilis ATCC 6633, Proteus mirabilis ATCC 12453, Pseudomonas aeruginosa ATCC 27853, Klebsiella pneumoniae ATCC 70063, and Escherichia coli ATCC 25922; 9 isolates: Staphylococcus aureus, Escherichia coli, Salmonella enterica, Salmonella Typhimurium, Proteus mirabilis, Klebsiella pneumoniae, Pseudomonas aeruginosa, Bacillus subtilis, and Bacillus cereus). In addition, four fungal strains (i.e., two standard strains: Candida albicans ATCC 10231 and Aspergillus niger ATCC 16888; two isolates: Saccharomyces cerevisiae and Candida albicans) were tested. All isolates were a generous gift from the Institute of Public Health, Kragujevac. The other microorganisms were provided from the collection held by the Microbiology Laboratory Faculty of Science, University of Kragujevac.
(§3) The bacterial suspensions were prepared by the direct colony method. The turbidity of the initial suspension was adjusted using a densitometer (DEN-1, BioSan, Riga, Latvia). When adjusted to the turbidity of the 0.5 McFarland’s standard (Andrews, 2005) the bacteria suspension contained approximately 10^8 colony-forming units (CFU)/mL, and the suspension of yeast contained 10^6 CFU/mL; 1:100 dilutions of the initial suspension were additionally prepared in sterile 0.85% saline. The suspensions of fungal spores were prepared by gentle stripping of spores from slopes with growing mycelia. The resulting suspensions were 1:1000 diluted in sterile 0.85% saline.
(§4) Antimicrobial activity was tested by determining the minimum inhibitory concentrations (MICs) and minimum microbicidal concentrations (MBCs) using the microdilution plate method with resazurin [56]. The 96-well plates were prepared by dispensing 100 μL of Mueller–Hinton broth for bacteria and Sabouard broth for fungi into each well. A 10 μL aliquot from the stock solution of the tested extract or component was added to the first row of the plate. Then, two-fold serial dilutions were performed using a multichannel pipette. The obtained concentration range was from 10 to 0.08 mg/mL. The method is described in detail in [76].
(§5) Each test included growth control and sterility control.
(§6) Minimum microbicidal concentrations were determined by plating 10 μL of samples from wells where no indicator color change or no mycelia growth was recorded on a nutrient agar medium. At the end of the incubation period, the lowest concentration with no growth (no colony) was defined as the minimum microbicidal concentration.

[2] = test system: E. coli ATCC 25922; test: Microdilution with resazurin, antibacterial; type: cell-based, Escherichia coli; conditions: Escherichia coli, ATCC25922, antibiotics
Description: as §1, §2, §3, §4, §5, §6

[3] = test system: E. coli (isolate); test: Microdilution with resazurin, antibacterial; type: cell-based, Escherichia coli; conditions: Escherichia coli, antibiotics
Description: as §1, §2, §3, §4, §5, §6

[4] = test system: K. pneumoniae ATCC 70063; test: Microdilution with resazurin, antibacterial; type: cell-based, Klebsiella pneumoniae; conditions: Klebsiella pneumoniae, ATCC70063, antibiotics
Description: as §1, §2, §3, §4, §5, §6

[5] = test system: K. pneumoniae (isolate); test: Microdilution with resazurin, antibacterial; type: cell-based, Klebsiella pneumoniae; conditions: Klebsiella pneumoniae, antibiotics
Description: as §1, §2, §3, §4, §5, §6

[6] = test system: S. aureus (isolate); test: Microdilution with resazurin, antibacterial; type: cell-based, Staphylococcus aureus; conditions: Staphylococcus aureus, antibiotics
Description: as §1, §2, §3, §4, §5, §6

[7] = test system: S. aureus ATCC 6538; test: Microdilution with resazurin, antibacterial; type: cell-based, Staphylococcus aureus; conditions: Staphylococcus aureus, ATCC6538, antibiotics
Description: as §1, §2, §3, §4, §5, §6

[8] = test system: P. aeruginosa ATCC 27853; test: Microdilution with resazurin, antibacterial; type: cell-based, Pseudomonas aeruginosa; conditions: Pseudomonas aeruginosa, ATCC27853, antibiotics
Description: as §1, §2, §3, §4, §5, §6

[9] = test system: P. aeruginosa (isolate); test: Microdilution with resazurin, antibacterial; type: cell-based, Pseudomonas aeruginosa; conditions: Pseudomonas aeruginosa, antibiotics
Description: as §1, §2, §3, §4, §5, §6

[10] = test system: S. enterica (isolate); test: microbe, parasite or virus in culture; type: cell-based, Salmonella enterica; conditions: Salmonella enterica, S. enterica, antibiotics
Description: as §1, §2, §3, §4, §5, §6

[11] = test system: S. Typhimurium (isolate); test: Microdilution with resazurin, antibacterial; type: cell-based, Salmonella Typhimurium; conditions: Salmonella enterica, antibiotics
Description: as §1, §2, §3, §4, §5, §6

[12] = test system: P. mirabilis (isolate); test: Microdilution with resazurin, antibacterial; type: cell-based, Proteus mirabilis; conditions: Proteus mirabilis, antibiotics
Description: as §1, §2, §3, §4, §5, §6

[13] = test system: P. mirabilis ATCC 12453; test: Microdilution with resazurin, antibacterial; type: cell-based, Proteus mirabilis; conditions: Proteus mirabilis, ATCC12453, antibiotics
Description: as §1, §2, §3, §4, §5, §6

[14] = test system: B. subtilis ATCC 6633; test: Microdilution with resazurin, antibacterial; type: cell-based, Bacillus subtilis; conditions: Bacillus subtilis, ATCC6633, antibiotics
Description: as §1, §2, §3, §4, §5, §6

[15] = test system: B. subtilis (isolate); test: Microdilution with resazurin, antibacterial; type: cell-based, Bacillus subtilis; conditions: Bacillus subtilis, antibiotics
Description: as §1, §2, §3, §4, §5, §6

[16] = DPPH radical scavenging activity; type: biochemical; conditions: mean ± SD, triplicate
Description: All chemicals for the antioxidant activity test were purchased from Sigma Aldrich. All measurements were conducted in triplicate, and a Shimadzu UV-1800 spectrophotometer was used for all measurements during antioxidant activity experiments. The IC50 value was used for comparing different radical scavenging effects between investigated extracts, isolated compounds, and positive controls. […] [71] with certain modifications. […] The solution was prepared ex tempore and stored in a tinted bottle in the refrigerator until the experiments were performed. […] The reaction mixture was vortexed and allowed to incubate in the dark for one hour, after which the absorbance was measured at 517 nm relative to the blank. […] Ac stands for absorbance of the control (which contains all reagents, except the tested extract or compound), and As is the absorbance of the sample.

[17] = Superoxide anion radical scavenging activity (NBT/NADH/PMS); type: biochemical; conditions: mean ± SD, triplicate
Description: All chemicals for the antioxidant activity test were purchased from Sigma Aldrich. All measurements were conducted in triplicate, and a Shimadzu UV-1800 spectrophotometer was used for all measurements during antioxidant activity experiments. The IC50 value was used for comparing different radical scavenging effects between investigated extracts, isolated compounds, and positive controls. […] [75] with modifications. […] To initiate the reaction, 0.1 mL of phenazine methosulfate (PMS) solution ([…] in 0.1 M phosphate buffer at pH 7.4) was added to each tube. The mixture was incubated at room temperature for 5 min, and then the absorbance was measured at 560 nm relative to the blank. Ascorbic acid, gallic acid, and Trolox were used as positive controls, and a decrease in absorbance indicated increased superoxide anion radical scavenging activity. […] Ac stands for absorbance of the control (which contains all reagents, except the tested extract or compound), and As is the absorbance of the sample.

[18] = Hydroxyl radical scavenging activity (2-deoxyribose); type: biochemical; conditions: mean ± SD, triplicate
Description: All chemicals for the antioxidant activity test were purchased from Sigma Aldrich. All measurements were conducted in triplicate, and a Shimadzu UV-1800 spectrophotometer was used for all measurements during antioxidant activity experiments. The IC50 value was used for comparing different radical scavenging effects between investigated extracts, isolated compounds, and positive controls. The ability to inhibit non-site-specific peroxidation mediated by hydroxyl radicals for […], and XSH was determined using the method previously described in the literature. During the experiment, in a reaction mixture that contained 500 μL of 5.6 mM 2-deoxy-D-ribose in KH2PO4-NaOH buffer (50 mM, pH 7.4), 100 μL of 1.0 mM aqueous ascorbic acid, 100 μL of 1.0 mM H2O2, and 200 μL of premixed solution of 100 μM FeCl3 and […] EDTA (1:1 v/v), 100 μL of extract dissolved in water was added. The tubes were vigorously shaken, vortexed, and incubated for 30 min at 50 °C. […] The mixture was vortexed again and heated in a water bath for 30 min at 50 °C. […] Ac stands for absorbance of the control (which contains all reagents, except the tested extract or compound), and As is the absorbance of the sample.

[19] = test system: A. niger ATCC 16888; test: Microdilution with resazurin, antifungal; type: cell-based, Aspergillus niger; conditions: Aspergillus niger, ATCC16888, antimycotics
Description: as §1, §2, §3, §4, §5, §6

[20] = test system: S. cerevisiae (isolate); test: Microdilution with resazurin, antifungal; type: cell-based, Saccharomyces cerevisiae; conditions: Saccharomyces cerevisiae, antimycotics
Description: as §1, §2, §3
as §4, with “[76]. […]” for “[76].”
Minimum microbicidal concentrations were determined by plating 10 μL of samples from wells where no indicator color change or no mycelia growth was recorded on a nutrient agar medium. […]

[21] = test system: C. albicans ATCC 10231; test: Microdilution with resazurin, antifungal; type: cell-based, Candida albicans; conditions: Candida albicans, ATCC10231, antimycotics
Description: as §1, §2, §3, §4, §5, §6

[22] = test system: C. albicans (isolate); test: Microdilution with resazurin, antifungal; type: cell-based, Candida albicans; conditions: Candida albicans, antimycotics
Description: as §1, §2, §3, §4, §5, §6

## CC1(C)S[C@@H]2[C@H](NC(=O)[C@H](N)c3ccccc3)C(=O)N2[C@H]1C(=O)O [AMP, ampicillin]
[1]; read-out: MBC
  MBC: 6 µg/mL (≈ 17.2 µM)
[1]; read-out: MIC
  MIC: 4 µg/mL (≈ 11.4 µM)
[2]; read-out: MBC
  MBC: 0.5 µg/mL (≈ 1.43 µM)
[2]; read-out: MIC
  MIC: 0.37 µg/mL (≈ 1.06 µM)
[3]; read-out: MBC
  MBC: 1.2 µg/mL (≈ 3.43 µM)
[3]; read-out: MIC
  MIC: 2.1 µg/mL (≈ 6.01 µM)
[4]; read-out: MBC
  MBC: > 128 µg/mL
[4]; read-out: MIC
  MIC: > 128 µg/mL
[5]; read-out: MBC
  MBC: > 128 µg/mL
[5]; read-out: MIC
  MIC: > 128 µg/mL
[6]; read-out: MBC
  MBC: < 0.06 µg/mL
[6]; read-out: MIC
  MIC: < 0.06 µg/mL
[7]; read-out: MBC
  MBC: 0.75 µg/mL (≈ 2.15 µM)
[7]; read-out: MIC
  MIC: 0.25 µg/mL (≈ 0.715 µM)
[8]; read-out: MBC
  MBC: > 128 µg/mL
[8]; read-out: MIC
  MIC: > 128 µg/mL
[9]; read-out: MBC
  MBC: > 128 µg/mL
[9]; read-out: MIC
  MIC: > 128 µg/mL
[10]; read-out: MBC
  MBC: 1 µg/mL (≈ 2.86 µM)
[10]; read-out: MIC
  MIC: 1 µg/mL (≈ 2.86 µM)
[11]; read-out: MBC
  MBC: 2 µg/mL (≈ 5.72 µM)
[11]; read-out: MIC
  MIC: 2 µg/mL (≈ 5.72 µM)
[12]; read-out: MBC
  MBC: > 128 µg/mL
[12]; read-out: MIC
  MIC: > 128 µg/mL
[13]; read-out: MBC
  MBC: 4 µg/mL (≈ 11.4 µM)
[13]; read-out: MIC
  MIC: 4 µg/mL (≈ 11.4 µM)
[14]; read-out: MBC
  MBC: 4 µg/mL (≈ 11.4 µM)
[14]; read-out: MIC
  MIC: 3 µg/mL (≈ 8.59 µM)
[15]; read-out: MBC
  MBC: 128 µg/mL (≈ 366 µM)
[15]; read-out: MIC
  MIC: 16 µg/mL (≈ 45.8 µM)

## O=C1O[C@H]([C@@H](O)CO)C(O)=C1O [Ascorbic acid, ascorbic acid]
[16]
  DPPH Radical Scavenging Activity (IC50): 6.31 ± 0.78 ^a,b,c,d µg/mL
[17]
  Superoxide Anion Radical Scavenging Activity (IC50): 105.62 ± 0.84 ^c,d,e,f µg/mL
[18]
  Hydroxyl Radical Scavenging Activity (IC50): 155.91 ± 0.64 ^a,d,e µg/mL

## OC(Cn1cncn1)(Cn1cncn1)c1ccc(F)cc1F [FC, fluconazole]
[19]; read-out: MFC
  MFC: 500 µg/mL (≈ 1630 µM)
[19]; read-out: MIC
  MIC: 250 µg/mL (≈ 816 µM)
[20]; read-out: MFC
  MFC: 7.81 µg/mL (≈ 25.5 µM)
[20]; read-out: MIC
  MIC: 7.81 µg/mL (≈ 25.5 µM)
[21]; read-out: MFC
  MFC: 31.2 µg/mL (≈ 102 µM)
[21]; read-out: MIC
  MIC: 31.2 µg/mL (≈ 102 µM)
[22]; read-out: MFC
  MFC: 62.5 µg/mL (≈ 204 µM)
[22]; read-out: MIC
  MIC: 62.5 µg/mL (≈ 204 µM)

## O=C(O)c1cc(O)c(O)c(O)c1 [Gallic acid, gallic acid]
[16]
  DPPH Radical Scavenging Activity (IC50): 3.72 ± 0.65 ^a,b,c,d,e µg/mL
[17]
  Superoxide Anion Radical Scavenging Activity (IC50): 68.55 ± 0.45 ^a,b,c,d,e µg/mL
[18]
  Hydroxyl Radical Scavenging Activity (IC50): 45.12 ± 0.51 ^a,b,c,d,e µg/mL

## Cc1c(C)c2c(c(C)c1O)CCC(C)(C(=O)O)O2 (centres unmarked) [Trolox, 6-hydroxy-2,5,7,8-tetramethylchroman-2-carboxylic acid]
[16]
  DPPH Radical Scavenging Activity (IC50): 10.79 ± 0.83 ^a,b,c,d,e µg/mL
[17]
  Superoxide Anion Radical Scavenging Activity (IC50): 135.14 ± 0.88 ^a,b,d,e,f µg/mL
[18]
  Hydroxyl Radical Scavenging Activity (IC50): 131.45 ± 0.56 ^c,e µg/mL
